What all share (type): biochemical
For experiment [1], the target named is β-lactamase Staph. Russell (Staphylococcus aureus, UniProt P00807). Briefly: β-lactamase inhibition, Staph. Russell enzyme. Particulars: read-out: % Inhibition of - lactamases at 40 μg/ml, Staph. Russell. The method, then:
(§1) The β-lactamase inhibiting activity of certain compounds of the formula (e36) was determined by the method described in Belgian Patent No. 827,926 and the results are shown in Table 1.

Experiment [2] has as its system β-lactamase Kleb. ε 70. Briefly: β-lactamase inhibition, Kleb. ε 70 enzyme. The method, then:
as §1

Experiment [3] concerns β-lactamase Proteus C889. Put plainly: β-lactamase inhibition, Proteus C889 enzyme. The procedure: as §1
In experiment [4] the target is β-lactamase E.Coli JT4 (Escherichia coli, UniProt P62593). Put plainly: β-lactamase inhibition, E.Coli JT4 enzyme. The note with it: read-out: % Inhibition of - lactamases at 40 μg/ml, E.Coli JT4. The method, then:
as §1

In experiment [5] the test system is β-lactamase Citrobac. Put plainly: β-lactamase inhibition, Citrobac. enzyme. The method, then: as §1
The target in experiment [6] is β-lactamase Ps. aerug. (Pseudomonas aeruginosa, UniProt P24735). Briefly: β-lactamase inhibition, Ps. aerug. enzyme. Particulars: read-out: % Inhibition of - lactamases at 40 μg/ml, Ps. aerug. The procedure: as §1
Sequence of β-lactamase Ps. aerug. (P24735 27-397): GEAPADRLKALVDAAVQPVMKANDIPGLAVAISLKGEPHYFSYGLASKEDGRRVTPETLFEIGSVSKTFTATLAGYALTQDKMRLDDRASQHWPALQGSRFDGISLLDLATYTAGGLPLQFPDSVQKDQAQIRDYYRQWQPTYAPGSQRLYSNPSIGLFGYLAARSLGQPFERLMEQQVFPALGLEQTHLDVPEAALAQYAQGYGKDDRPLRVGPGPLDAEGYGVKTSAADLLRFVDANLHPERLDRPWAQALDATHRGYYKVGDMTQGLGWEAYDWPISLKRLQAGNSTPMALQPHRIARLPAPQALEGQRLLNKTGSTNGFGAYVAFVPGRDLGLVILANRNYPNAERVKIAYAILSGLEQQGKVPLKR
Experiment [7] has as its target β-lactamase Ps. dalgl. (Pseudomonas aeruginosa, UniProt P16897). Briefly: β-lactamase inhibition, Ps. dalgl. enzyme. Particulars: read-out: % Inhibition of - lactamases at 40 μg/ml, Ps. dalgl. The method, then:
as §1

Sequence of β-lactamase E.Coli JT4 (P62593 24-286 limits assumed): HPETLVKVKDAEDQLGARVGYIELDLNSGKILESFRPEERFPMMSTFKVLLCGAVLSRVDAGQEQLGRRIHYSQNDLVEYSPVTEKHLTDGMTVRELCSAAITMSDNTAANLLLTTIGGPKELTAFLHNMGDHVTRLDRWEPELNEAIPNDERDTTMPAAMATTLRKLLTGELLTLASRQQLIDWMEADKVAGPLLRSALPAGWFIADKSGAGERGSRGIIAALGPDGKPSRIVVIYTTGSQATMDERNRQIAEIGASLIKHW
Sequence of β-lactamase Staph. Russell (P00807 25-281): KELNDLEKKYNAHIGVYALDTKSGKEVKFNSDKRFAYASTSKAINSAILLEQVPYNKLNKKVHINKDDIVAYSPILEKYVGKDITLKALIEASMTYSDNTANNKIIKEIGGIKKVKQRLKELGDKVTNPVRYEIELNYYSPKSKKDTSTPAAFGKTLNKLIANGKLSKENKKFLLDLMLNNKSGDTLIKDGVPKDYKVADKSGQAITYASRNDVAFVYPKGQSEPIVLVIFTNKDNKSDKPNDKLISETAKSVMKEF
Sequence of β-lactamase Ps. dalgl. (P16897 18-288): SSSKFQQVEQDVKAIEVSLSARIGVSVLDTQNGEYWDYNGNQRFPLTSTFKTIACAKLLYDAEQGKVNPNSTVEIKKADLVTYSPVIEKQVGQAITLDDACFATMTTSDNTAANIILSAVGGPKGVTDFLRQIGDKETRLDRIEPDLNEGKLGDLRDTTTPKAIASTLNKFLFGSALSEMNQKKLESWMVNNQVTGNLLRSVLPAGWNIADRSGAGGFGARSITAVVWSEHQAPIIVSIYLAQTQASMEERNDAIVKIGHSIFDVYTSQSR

As for `COC(=O)[C@H]1[C@H](CCO)O[C@@H]2CC(=O)N21` (relative stereo) [CH2 CH2 OH, Me, (2RS,3SR,5RS)], the inhibition at 40 µg/mL is 10% in experiment [1], 15% in experiment [4], 10% in experiment [6] and 0% in experiment [7]. Moreover, the “% Inhibition of - lactamases at 40 μg/ml, Kleb. ε 70” value (shortened to “% Inhibition … Kleb. ε 70”) in experiment [2] is listed as 14%. Also, the “% Inhibition of - lactamases at 40 μg/ml, Proteus C889” value (“% Inhibition … Proteus C889” for short) in experiment [3] came out at 29%. Besides, the “% Inhibition of - lactamases at 40 μg/ml, Citrobac.” value (from here on “% Inhibition … Citrobac.”) in experiment [5] came out at 2%.
With `O=C(O)[C@H]1CO[C@@H]2CC(=O)N12` (relative stereo) [H, Na, (2RS,5RS)], the inhibition at 40 µg/mL is 33% in experiment [1], 28% in experiment [4], 14% in experiment [6] and 0% in experiment [7]. In addition, in experiment [2], the “% Inhibition … Kleb. ε 70” value is 78%. Further, the “% Inhibition … Citrobac.” value in experiment [5] was found to be 0%.
For the compound `COC(=O)[C@H]1[C@H](CBr)O[C@@H]2CC(=O)N21` (relative stereo) [CH2 Br, CO2 CH3, (2RS,3RS,5RS)], the inhibition at 40 µg/mL in experiment [1] came to 12%; in experiment [4] it was 42%; in experiment [6] it was 8%; in experiment [7] it was 17%. Further, in experiment [2], the “% Inhibition … Kleb. ε 70” value was determined as 4%. Besides, the “% Inhibition … Proteus C889” value in experiment [3] worked out at 42%. In experiment [5] (value printed in parentheses), the “I50 values (in parentheses), Citrobac.” value turned out to be 10.3 µg/mL.
For the compound `O=C(OCc1ccccc1)[C@@H]1O[C@@H]2CC(=O)N2[C@H]1C(=O)OCc1ccccc1` [CO2 CH2 Ph, CO2 CH2 Ph, (2R,3R,5R), Dibenzyl (2R, 3R, 5R)-7-oxo-4-oxa-1-azabicyclo-[3.2.0]heptan-2,3-Dicarboxylate], the inhibition at 40 µg/mL in experiment [1] was 0%; in experiment [4] it was 65%; in experiment [6], 9%; in experiment [7], 26%. Further, in experiment [2], the “% Inhibition … Kleb. ε 70” value turned out to be 56%. Further, the “% Inhibition … Proteus C889” value in experiment [3] stood at 23%. The “% Inhibition … Citrobac.” value in experiment [5] was found to be 2%.
In the case of `COC(=O)[C@H]1[C@H](CCOS(=O)(=O)c2ccc(C)cc2)O[C@@H]2CC(=O)N21` (relative stereo), the inhibition at 40 µg/mL in experiment [1] is 4%; in experiment [4] it was 33%; in experiment [6] it was 11%; in experiment [7] it was 11%. Also, the “% Inhibition … Kleb. ε 70” value in experiment [2] came to 0%. Moreover, the “% Inhibition … Citrobac.” value in experiment [5] was determined as 5%.

(Values after patent US4138403A, “Azabicycloheptanes” (Beecham Group Limited, priority 1975, dated 1979).)
